Laboratory results from patent US10774046B2, “Inhibitors for the treatment of cancer and related methods” (UNIVERSITY OF LOUISVILLE RESEARCH FOUNDATION, INC., priority 2017, dated 2020).
Blank lines part the entries; values can stand above or below the compound they belong to.

Columns and labels:
[1] = oral and intravenous pharmacokinetic properties; type: in vivo; conditions: CD-1 mice (N=3)
human recombinant PFKFB4 = human recombinant PFKFB4 (Homo sapiens, UniProt Q16877); test: fructose-6-phosphate kinase activity of recombinant PFKFB4 (in vitro kinase assay); type: biochemical
Description: The fructose-6-phosphate kinase activity of human recombinant PFKFB4 in the presence of DMSO±indicated 5MPN concentrations was assayed as previously described. The activity of 5MPN against 97 kinases was examined using a commercially available active-site dependent competition binding assay core service (KINOMEscanEDGE) that quantifies the capacity of test agents to compete with an immobilized, active-site directed ligand using a DNA-tagged kinase and immobilized ligand and compound. For example, enzyme inhibition was studied using an ADP-Glo assay. The effect of MPN-2 on the activity of recombinant human PFKFB4 enzyme was examined in an ADP-Glo assay (Promega), which measures ADP formed from a kinase reaction. ADP is converted into ATP, which is converted into light by a luciferase. PFKFB4 protein was exposed to MPN-2 at indicated concentrations in the presence of ATP and fructose-6-phosphate and following manufacturer's instructions, ADP-Glo and kinase detections reagents were added. The data are shown as the decrease in luminescence caused by MPN-2 relative to DMSO.

[2] = test system: PFKFB4-/- lung fibroblasts; test: cell counts of tamoxifen-inducible PFKFB4-/- fibroblasts; type: cell-based, mouse; conditions: 4HT-induced deletion, 10 μM 5MPN, 24 hours
From the text: H460, H1299, H441, H522 and A549 non-small cell lung cancer (NSCLC), MDA-MB-231 (breast), LNCaP (prostatic) and HCT116 (colon) adenocarcinoma and Lewis lung carcinoma (LLC) cell lines were obtained from ATCC and used within 6 months of acquisition. PFKFB4^−/− ear pinna fibroblasts isolated from TamCre/loxP/PFKFB4^−/− mice were immortalized as described previously (Chesney J et al. Fructose-2,6-bisphosphate synthesis by 6-phosphofructo-2-kinase/fructose-2,6-bisphosphatase 4 (PFKFB4) is required for the glycolytic response to hypoxia and tumor growth. Oncotarget 2014 Aug. 30; 5(16):6670-86). Normal bronchial epithelial cells (NHBE) were obtained from Lonza and NHBE cells expressing telomerase, SV40 large T antigen and activated Ras (hT/LT/Ras) were a gift from Dr. B. J. Rollins, Dana Farber Cancer Institute. All cell lines were tested and found negative for mycoplasma (PCR Mycoplasma Detection Kit, ABM). Cell lines were grown in DMEM (A549, LNCaP, MDA-MB-231, LLC and PFKFB4^−/−), RPMI 1640 (H460, H1299, H441, H522) and McCoy's 5A media (HCT116) (all from Invitrogen) containing 10% fetal calf serum (Hyclone). […]
Cells were incubated in 20% trypan blue (Sigma) for 5 minutes. Cells excluding trypan blue were counted using a standard hemocytometer (Hausser Scientific) to determine total numbers of viable cells. Data are expressed as mean±SD of three experiments.

LLC xenografts = test: intratumoral F2,6BP; type: in vivo, C57BL/6 mice; conditions: 120 mg/kg by gavage daily, 10 days
Description: Cells or tissues were prepared as previously described and F2,6BP content measured using a coupled enzyme reaction following a modification of the method of Van Schaftingen et al (VAN SCHAFTINGEN E et al. “A kinetic study of pyrophosphate:fructose-6-phosphate phosphotransferase from potato tubers. Application to a microassay of fructose 2,6-bisphosphate” Eur J Biochem (1982) Vol. 129, No. 1, pp. 191-195) and normalized to total cellular protein measured by the bicinchoninic acid assay (BCA, Thermo Scientific). For example, H460 cells were exposed to the indicated concentrations of MPN-2. In order to measure F2,6BP, cells were harvested, washed with PBS, lysed in NaOH/Tris acetate by heating at 80° C. and lysates neutralized to pH 7.2. F2,6BP content was measured using a coupled enzyme reaction following a modified method of Van Schaftingen et al (VAN SCHAFTINGEN E et al. “A kinetic study of pyrophosphate:fructose-6-phosphate phosphotransferase from potato tubers. Application to a microassay of fructose 2,6-bisphosphate” Eur J Biochem (1982) Vol. 129, No. 1, pp. 191-195). The F2,6BP concentration was normalized to total cellular protein measured by the bicinchoninic acid assay (BCA, Thermo Scientific). All data are expressed as the mean±SD of three experiments. Statistical significance was assessed by the two-sample t test (independent variable). […]

human cancer cell lines = test: proliferation, viable cell count by trypan blue exclusion; type: cell-based; conditions: counts at 48 hours shown
Description: Method: Cells were plated in 24 well plates and exposed to increasing concentrations of Formula (VIII). DMSO was used as a vehicle. After 24, 48 and 72 hours of exposure, cells were detached, and viable cells were counted by Trypan blue exclusion (representative counts at 48 hours shown).

cancer cells = test: glycolysis assay (3H2O from 5-[3H]glucose); type: cell-based; conditions: increasing concentrations
Description: Method: To examine glycolysis, cells growing in 6-well plates were incubated in 500 μl of complete medium containing 1 μCi of 5-[^3H] glucose per well for 60 min in 5% CO2 at 37° C. The medium was then collected and centrifuged to pellet any suspended cells. To separate the ^3H2O formed via glycolysis from the 5-[^3H]glucose added to the medium, an evaporation technique in a sealed system was utilized. Briefly, 150 μl aliquots of medium were added to open tubes that were placed upright inside scintillation vials containing 1 ml of H2O. The scintillation vials were sealed, and the ^3H2O produced by glycolysis through enolase and released to the medium was allowed to equilibrate with the H2O in the outer vial for 48 h at 37° C. The amounts of ^3H2O that had diffused into the surrounding H2O was measured on a Tri-Carb 2910 liquid scintillation analyzer (Perkin Elmer) and compared with ^3H2O and 5-[^3H]glucose standards. Protein concentration was determined using the BCA assay and counts were normalized to protein concentration (previously described in CHESNEY et al., “Fructose-2,6-bisphosphate synthesis by 6-phosphofructo-2-kinase/fructose-2,6-bisphosphatase 4 (PFKFB4) is required for the glycolytic response to hypoxia and tumor growth” Oncotarget (2014) Vol. 5, No. 16, pp. 6670-6686, which is herein incorporated by reference in its entirety).

Sequence of human recombinant PFKFB4 (Q16877 whole entry): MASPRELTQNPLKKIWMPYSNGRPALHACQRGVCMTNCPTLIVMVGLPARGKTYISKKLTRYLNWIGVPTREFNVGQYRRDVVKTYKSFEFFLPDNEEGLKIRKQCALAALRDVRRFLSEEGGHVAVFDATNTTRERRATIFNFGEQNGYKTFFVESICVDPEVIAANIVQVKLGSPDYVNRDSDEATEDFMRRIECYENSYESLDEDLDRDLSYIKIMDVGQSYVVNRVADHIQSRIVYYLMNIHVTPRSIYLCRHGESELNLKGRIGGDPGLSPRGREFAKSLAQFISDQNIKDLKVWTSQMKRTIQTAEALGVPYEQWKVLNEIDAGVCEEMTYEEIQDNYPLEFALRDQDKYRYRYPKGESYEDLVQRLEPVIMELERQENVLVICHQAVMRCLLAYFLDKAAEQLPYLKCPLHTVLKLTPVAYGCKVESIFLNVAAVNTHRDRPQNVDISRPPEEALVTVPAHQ

intravenous bioavailability [1]: exhibits intravenous bioavailability | oral bioavailability [1]: has oral bioavailability
Compound: 5-[(8-methoxy-2-methylquinolin-1-ium-4-yl)amino]pentyl nitrate [MPN-2]

Compound: COc1cccc2c(NCCCCCO[N+](=O)[O-])ccnc12 [5MPN, 5-[(8-methoxyquinolin-4-yl)amino]pentyl nitrate]
type of inhibition (Lineweaver-Burk analyses) (human recombinant PFKFB4; as a function of F6P concentration, FIG. 1D): competitive inhibitor of the F6P binding site | PFKFB4 activity (human recombinant PFKFB4; kinase activity of recombinant PFKFB4, FIG. 1C): inhibited PFKFB4 activity | effect of genomic deletion of Pfkfb4 on anti-proliferative effect [2]: sensitized | intratumoral F2,6BP (LLC xenografts): reduction

Compound: COc1cccc2c(NCCCCCNC(=O)C(F)(F)F)ccnc12 [Formula (VIII), 2,2,2-trifluoro-N-(5-((8-methoxyquinolin-4-yl)amino)pentyl)acetamide]
proliferation (cell counts relative to DMSO) (human cancer cell lines): decreases the proliferation of human cancer cell lines in vitro with higher potency than 5MPN | glycolysis (production of 3H2O relative to DMSO) (cancer cells): dose-dependent decrease
